In patent US9212206B1, “4-Fluoro-Thio-containing inhibitors of APP2, compositions thereof and method of use” (priority 2014, dated 2015):

Tests used:
[1] = target: Human aminopeptidase P2 (APP2) (Homo sapiens (Human), UniProt O43895); assay: Determination of human APP2 activity (quenched fluorescent substrate); type: biochemical; settings: for IC50: purified human kidney APP2, substrate 1 μM (=Km), pH 7.4, 30° C., read-out: Binding affinity (IC50) APP2; for IC50 ratio ACE/APP2: selectivity, ratio of IC50s for ACE/APP2
Procedure: Human kidney tissue, which was obtained from the Cooperative Human Tissue Network, was the source of purified human APP2 as used herein. APP2 enzyme activity was measured during purification as described in Example 2B below. The membrane-bound APP2 was purified from human kidney tissue using the following steps: 1) kidney tissue was homogenized in 30 volumes of buffer containing Triton X-100 detergent and centrifuged; 2) the pellet was washed and suspended in buffer containing octyl-β-D-glucopyranoside detergent, and then centrifuged; 3) the supernatant was treated with 10 units of phosphatidylinositol-specific phospholipase C (Invitrogen, Eugene, Ga.) to remove the hydrophobic part of the glycosyl-phosphatidylinositol lipid membrane anchor from APP2, and then dialyzed; 4) the dialysate was passed through an octyl-Sepharose chromatography column; 5) the eluent was centrifuged and then concentrated by ultrafiltration in Amicon Ultra-15 Ultracel-10 k filters (Millipore Corp, Billerica, Mass.); 6) the retentate was dialyzed and applied to a HiTrap Q-Sepharose XL ion exchange chromatography column. Human APP2 enzyme activity was eluted with a linear KCl salt gradient.
Human aminopeptidase P2 (APP2) enzyme activity was determined using the internally quenched fluorescent substrate: H-Lys(2-aminobenzoyl)-Pro-Pro-p-nitroanilide (Bachem, Torrance, Calif.) at 1 μM (=Km) for inhibitor studies and 5 μM for enzyme purification assays. The assay buffer was 0.1 M HEPES, pH 7.4, and the assay temperature was 30° C. Cleavage of the substrate by the enzyme produces an increase in fluorescence due to the release of H-Lys(2-aminobenzoyl). Enzyme rates were determined in an F. fluorescence plate reader (Molecular Devices, Sunnyvale, Calif.) using an excitation wavelength of 320 nm and an emission wavelength of 405 nm. The binding affinity of an inhibitor was estimated and expressed as IC50 values (the concentration that inhibits activity by 50%).

[2] = target: Human recombinant angiotensin-converting enzyme (hrACE) (Homo sapiens (Human), UniProt P12821); assay: Determination of human ACE activity (quenched fluorescent substrate ES005); type: biochemical; settings: for IC50: hrACE, substrate below Km, pH 7.4, 30° C., read-out: Binding affinity (IC50) ACE
Procedure: Human recombinant angiotensin-converting enzyme (hrACE) was obtained from R&D Systems (Minneapolis, Minn.). Its enzyme activity was determined using the internally quenched fluorescent substrate ES005: (7-methoxycoumarin-4-yl)acetyl-Arg-Pro-Pro-Gly-Phe-Ser-Ala-Phe-(2,4-dinitrophenyl)-Lys (R&D Systems, Minneapolis, Minn.). The assay buffer was 0.1 M HEPES, pH 7.4, and the temperature was 30° C. The substrate concentration was below Km (≦40 μM). Enzyme rates were determined in an Fmax fluorescence plate reader (Molecular Devices, Sunnyvale, Calif.) using an excitation wavelength of 320 nm and an emission wavelength of 405 nm. The binding affinity of an inhibitor was estimated and expressed as IC50 values (the concentration that inhibits activity by 50%).

Male CD-1(ICR) mice = assay: Bilateral renal ischemia/reperfusion in mice; type: in vivo, mouse; settings: for reduction of blood urea nitrogen (BUN) compared to saline: i.v. 5 min before reperfusion after 25 min ischemia, BUN after 2 days of reperfusion, apstatin 1.8 mg/kg, ST-115 10 μg/kg; for mice that died before the prespecified 2-day BUN measurement point: saline control 29% died early
Procedure: Previous studies have shown that the prototype APP2 inhibitor apstatin can greatly reduce ischemia/reperfusion damage in the heart. […] In this study, blood flow to both kidneys of the mouse was blocked for 25 min., producing ischemia. Blood flow was then restored (reperfusion). In order to determine the effects of inhibiting APP2 in this model of kidney damage, apstatin, ST-115, or saline (control) were administered intravenously 5 min. before reperfusion. After two days of reperfusion, blood urea nitrogen (BUN, a marker of kidney dysfunction) was measured. In FIG. 1, data are presented as the mean±standard error of the mean. Each drug was separately compared to the control by the unpaired t-test with Welch's correction. ** Apstatin vs. Saline, p<0.01; *** ST-115 vs. Saline, p<0.001.
Male CD-1(ICR) mice (36-47 g) from Harlan Laboratories (Indianapolis, Ind.) were used. Each mouse was anesthetized by the subcutaneous injection of 50 mg/kg sodium pentobarbital (Akorn Inc, Lake Forest, Ill.) and placed on a 37° C. warmer. For surgery, the abdomen was shaved and the mouse was moved to a warming plate with feedback temperature control (TCAT-2DF, Harvard Apparatus Holliston, Mass.). The body temperature of the mouse was maintained at 36.9±0.1° C. throughout the procedure. The skin of the abdomen was washed with alcohol, and a midline incision was made to expose the kidneys. After removing adipose tissue from the renal pedicles, a microaneurysm clamp was placed on each pedicle to block blood flow to/from both kidneys for 25 min. (referred to as the ischemia phase). At the 20 min. point, 0.15 ml of either saline or saline containing drug (apstatin or ST-115) was administered intravenously through the femoral vein. The doses were 1.8 mg/kg for apstatin and 10 μg/kg for ST-115. At 5 minutes after drug injection, the clamps were removed from the pedicles to restore blood flow to/from the kidneys (the reperfusion phase). After confirming reperfusion, a subcutaneous injection of saline was administered in the upper thigh for rehydration, and the incision was sutured closed. Regulated temperature control was maintained for at least the first 0.5 hours of reperfusion. The mouse was then placed on a 37° C. warmer to recover from the anesthetic and then moved to the home cage. After 2 days of reperfusion, the mouse was sacrificed by exsanguination. The blood was allowed to clot and then centrifuged to obtain serum. The serum was assayed for its concentration of urea (Blood Urea Nitrogen—BUN), a marker of kidney damage, using a kit from Stanbio (Boerne, Tex.). […] The BUN data points (20) were analyzed by comparing the values for each drug with those of the saline control using the unpaired t-test with Welch's correction (Graphpad Prism statistical package, La Jolla, Calif.).

isolated perfused heart = settings: ischemia/reperfusion (Ersahin et al. 1999); cited from earlier work

Sequence of Human recombinant angiotensin-converting enzyme (hrACE) (P12821 30-1306): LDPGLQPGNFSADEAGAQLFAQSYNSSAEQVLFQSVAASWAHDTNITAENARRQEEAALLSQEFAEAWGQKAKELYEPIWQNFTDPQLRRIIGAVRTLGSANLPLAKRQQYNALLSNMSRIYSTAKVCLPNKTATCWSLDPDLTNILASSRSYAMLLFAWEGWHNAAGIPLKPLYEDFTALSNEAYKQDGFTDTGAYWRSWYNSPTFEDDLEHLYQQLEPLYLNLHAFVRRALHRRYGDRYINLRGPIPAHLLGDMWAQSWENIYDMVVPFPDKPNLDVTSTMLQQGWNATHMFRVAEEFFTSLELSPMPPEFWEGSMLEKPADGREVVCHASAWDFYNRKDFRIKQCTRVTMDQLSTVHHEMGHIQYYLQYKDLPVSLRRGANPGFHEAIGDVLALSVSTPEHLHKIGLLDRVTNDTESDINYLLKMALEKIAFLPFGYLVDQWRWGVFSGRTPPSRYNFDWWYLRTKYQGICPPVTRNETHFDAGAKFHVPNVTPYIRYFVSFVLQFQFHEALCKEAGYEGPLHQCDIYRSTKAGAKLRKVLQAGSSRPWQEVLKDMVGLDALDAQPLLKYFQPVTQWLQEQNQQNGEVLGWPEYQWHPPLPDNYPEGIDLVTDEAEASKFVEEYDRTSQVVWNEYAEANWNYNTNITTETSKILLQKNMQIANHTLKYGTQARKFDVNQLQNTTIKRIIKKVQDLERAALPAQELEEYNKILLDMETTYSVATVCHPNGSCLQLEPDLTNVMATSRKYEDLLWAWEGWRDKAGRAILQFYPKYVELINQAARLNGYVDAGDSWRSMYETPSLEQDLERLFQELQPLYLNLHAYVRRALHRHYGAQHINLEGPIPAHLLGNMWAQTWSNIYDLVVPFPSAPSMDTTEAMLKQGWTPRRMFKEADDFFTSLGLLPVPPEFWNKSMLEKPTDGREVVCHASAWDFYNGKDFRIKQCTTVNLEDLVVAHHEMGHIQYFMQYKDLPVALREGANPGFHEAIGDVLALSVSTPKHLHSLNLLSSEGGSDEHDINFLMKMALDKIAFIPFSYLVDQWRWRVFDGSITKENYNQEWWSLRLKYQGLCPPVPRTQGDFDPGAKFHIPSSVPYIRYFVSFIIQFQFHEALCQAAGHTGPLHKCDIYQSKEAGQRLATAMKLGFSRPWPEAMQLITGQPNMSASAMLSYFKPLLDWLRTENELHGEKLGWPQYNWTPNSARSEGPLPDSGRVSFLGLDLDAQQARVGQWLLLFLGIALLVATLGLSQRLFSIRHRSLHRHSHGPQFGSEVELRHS
Sequence of Human aminopeptidase P2 (APP2) (O43895 22-674): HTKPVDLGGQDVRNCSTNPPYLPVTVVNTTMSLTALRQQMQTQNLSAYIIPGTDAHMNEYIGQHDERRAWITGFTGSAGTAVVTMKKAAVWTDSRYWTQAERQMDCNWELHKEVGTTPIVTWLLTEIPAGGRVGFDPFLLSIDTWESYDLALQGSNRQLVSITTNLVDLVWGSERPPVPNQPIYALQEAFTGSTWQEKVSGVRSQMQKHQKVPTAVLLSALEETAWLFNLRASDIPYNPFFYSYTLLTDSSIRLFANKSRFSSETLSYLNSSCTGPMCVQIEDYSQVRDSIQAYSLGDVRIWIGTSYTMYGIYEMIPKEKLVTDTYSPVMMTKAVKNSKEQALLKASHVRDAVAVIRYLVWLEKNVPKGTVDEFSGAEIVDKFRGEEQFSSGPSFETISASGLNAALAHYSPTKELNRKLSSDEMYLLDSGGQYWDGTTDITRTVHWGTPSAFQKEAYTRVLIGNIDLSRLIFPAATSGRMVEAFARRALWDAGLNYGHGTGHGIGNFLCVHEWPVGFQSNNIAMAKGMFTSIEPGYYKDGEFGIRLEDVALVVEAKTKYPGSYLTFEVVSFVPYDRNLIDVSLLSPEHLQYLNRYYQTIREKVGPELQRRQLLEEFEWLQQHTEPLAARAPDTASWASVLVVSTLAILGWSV

## CC(C)C[C@H](S)C(=O)N1CCC[C@H]1C(=O)N1CCC[C@H]1C(=O)N1CC[C@H](C(=O)O)C1 [Formula V]
[1]
  IC50: 26 nM
  IC50 ratio ACE/APP2: 1,900
[2]
  IC50: 49000 nM

## C[C@H](NC(=O)[C@@H]1CCCN1C(=O)[C@@H]1CCCN1C(=O)[C@@H](O)[C@H](N)Cc1ccccc1)C(N)=O [apstatin]
Male CD-1(ICR) mice
  reduction of blood urea nitrogen (BUN) compared to saline: 49%
  mice that died before the prespecified 2-day BUN measurement point: no apstatin or ST-115 treated mice died early
Isolated perfused heart
  reduction of cardiac damage: 74%

## CC(C)C[C@H](S)C(=O)N1CCC[C@H]1C(=O)N1CCC[C@H]1C(=O)N1CCC[C@@H]1C(=O)O [Formula VI]
[1]
  IC50: 9.7 nM
  IC50 ratio ACE/APP2: 1,200
[2]
  IC50: 12000 nM

## CC(C)C[C@H](S)C(=O)N1CCC[C@H]1C(=O)N1CCC[C@H]1C(=O)N(C)[C@@H](C)C(=O)O [Formula VII]
[1]
  IC50: 3.9 nM
  IC50 ratio ACE/APP2: 160
[2]
  IC50: 640 nM

## CC(C)C[C@H](S)C(=O)N1C[C@@H](F)C[C@H]1C(=O)N1CCC[C@H]1C(=O)N1CC[C@@H](C(=O)O)C1 [Formula III, [(S)-2-mercapto-4-methylpentanoyl]-4(S)-fluoro-Pro-Pro-[(3R)-β-Pro]-OH]
Male CD-1(ICR) mice
  reduction of blood urea nitrogen (BUN) compared to saline: 56%
  mice that died before the prespecified 2-day BUN measurement point: no apstatin or ST-115 treated mice died early
[1]
  IC50 for human APP2: 3.7 nM/L
  IC50: 3.7 nM
  IC50 ratio ACE/APP2: 18,000
[2]
  IC50 for human ACE: 68,000 nM/L
  IC50: 68000 nM
